According to patent US10919938B2, “Modified cyclopentapeptides and uses thereof” (TECHNISCHE UNIVERSITÄT MÜNCHEN, priority 2014, dated 2021):
Like-named read-outs stand apart in the source and are kept apart here. Non-standard residues stand in square brackets, D forms with d. Residues, ends and D or L forms follow the SMILES beside them. Groups on a side chain read outwards from the residue. *: point of attachment. DOTA(Ga) = O=C1CN2CCN3CCN(CC(=O)*)CCN(CC2)CC(=O)[O][Ga]([O]1)[O]C(=O)C3; DOTA = O=C(O)CN1CCN(CC(=O)O)CCN(CC(=O)*)CCN(CC(=O)O)CC1; 2Nal = N[C@@H](Cc1ccc2ccccc2c1)C(=O)O; dNMeOrn = CN[C@H](CCCN)C(=O)O; 4Amb = NCc1ccc(C(=O)O)cc1; 4Abz = Nc1ccc(C(=O)O)cc1; Ahx = NCCCCCC(=O)O

Tests used:
hCXCR4 [1] = target: T1, hCXCR4 (Homo sapiens, UniProt P61073); conditions: stated in text as had been shown; cited from earlier work
T1 construct: endogenous in cells; host or cells: Jurkat human T lymphocyte cells
T1 sequence (P61073 whole entry): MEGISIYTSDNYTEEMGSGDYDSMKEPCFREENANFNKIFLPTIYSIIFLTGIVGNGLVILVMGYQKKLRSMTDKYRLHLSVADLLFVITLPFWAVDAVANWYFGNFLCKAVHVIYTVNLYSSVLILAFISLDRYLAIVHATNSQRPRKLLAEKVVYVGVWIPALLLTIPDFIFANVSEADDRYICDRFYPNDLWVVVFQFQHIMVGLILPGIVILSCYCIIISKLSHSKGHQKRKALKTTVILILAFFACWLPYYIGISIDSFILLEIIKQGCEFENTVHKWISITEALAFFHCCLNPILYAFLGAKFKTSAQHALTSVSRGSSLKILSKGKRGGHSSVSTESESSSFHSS

hCXCR4 [2] = target: T1, hCXCR4; assay: Determination of IC50: competition against [^125I]FC-131 on Jurkat cells; type: binding; conditions: hCXCR4-expressing Jurkat T-cell leukemia cells, [^125I]FC-131 as radioligand, mean ± SD
Method: (§1) After washing twice with 400 piL of cold PBS, the amount of bound radioligand was quantified using a γ-counter. Nonspecific binding was determined in the presence of 1 μM FC131. IC50 values were calculated using the PRISM 4 program (Graph Pad Software, San Diego, Calif.).

hCXCR4 [3] = target: T1, hCXCR4; assay: Determination of inverse IC50: radioiodinated peptides against standard competitor FC-131 on Jurkat cells; type: binding; conditions: combining IC50 and inverse IC50 assays
Method: as §1
Experiments were performed in analogy the determination of IC50.

[4] = system: Daudi (high CXCR4) and SU-DHL-8 (low CXCR4) xenografts; assay: Dual tracer biodistribution study in tumor bearing SCID mice; conditions: i.v., 1 h p.i.
Method: (§6) For the induction of tumor growth, female CB-17 SCID mice (6-8 weeks, Charles River, Sulzfeld, Germany) were injected subcutaneously with app. 5×10^6 Daudi (right shoulder) or SU-DHL-8 (left shoulder) cells suspended in 100 μL of a 1:1 (v/v) mixture of serum free culture medium and Matrigel (BD Biosciences, Heidelberg, Germany). Within 10-21 days, solid palpable tumors had grown (100-800 mg), and the animals were used for the experiments.
(§7) The animals were sacrificed 90 min post injection (p.i.), and the organs of interest were dissected. The radioactivity was measured in weighted tissue samples using a γ-counter. Data are expressed in % ID/g tissue (mean±SD).

[5] = Determination of lipophilicity (octanol/PBS partition); type: physicochemical; conditions: octanol / PBS pH 7.4, radiolabeled peptide
Method: To a solution of app. 2 kBq of radiolabeled peptide in 500 tiL of PBS (pH 7.4), 500 μL of octanol were added (n=6). Vials were vortexed vigorously for 3 min. To achieve quantitative phase separation, the vials were centrifuged at 14,000×g for 6 min in a Biofuge 15 (Heraeus Sepatech, Osterode, Germany). The activity concentrations in 100 μL-samples of both the aqueous and the organic phase were measured in a γ-counter. Both the partition coefficient Pow, which is defined as the molar concentration ratio of a single species A between octanol and an aqueous phase at equilibrium, and log Pow, which is an important parameter used to characterize lipophilicity of a compound, were calculated.

Jurkat cells [6] = assay: Dual tracer internalization study (suspension cells), Jurkat; type: cell-based, human
Method: (§2) The total sample volume was 250 μL. After incubation, the tubes were centrifuged (3 min, 1300 rcf, Megafuge 1.0, Heraeus Thermo Scientific), the supernatant was carefully removed and combined with 200 μL of ice cold HBSS used for washing the cells (free radioligand). To remove surface bound (acid releasable) radioactivity, cells were then washed twice with ice cold acid wash buffer (0.02 M NaOAc in saline buffered with AcOH to pH=5). Finally, the amount of internalized activity in the cell pellet as well as the fraction of free and acid releasable ^68Ga-activity were determined using a γ-counter.

Daudi cells [7] = assay: Dual tracer internalization study (suspension cells), Daudi; type: cell-based, human; conditions: 30 min, 37° C., corrected for non-specific binding (100 μM AMD3100)
Method: as §2

SUDHL-8 cells = assay: Dual tracer internalization study (suspension cells), SUDHL-8; type: cell-based, human; conditions: SUDHL-8, 30 min, 37° C., corrected for non-specific binding (100 μM AMD3100)
Method: as §2

HT-29 cells [8] = assay: Dual tracer internalization study (adherent cells), HT-29; type: cell-based, human; conditions: HT-29, 30 min, 37° C., corrected for non-specific binding (100 μM AMD3100)
Method: (§3) 2·10^5 cells per well. On the day of the experiment, the culture medium was removed and the cells were washed once with 250 μL of unsupplemented medium before being left to equilibrate in 200 μL of assay medium at 37° C. for a minimum of 15 min before the experiment. […] (n=3 wells, respectively, per time point). Incubation was terminated by placing the plate on an ice pack for app. 1 min and by subsequent removal of the incubation medium. Cells were thoroughly rinsed with 250 μL of HBSS. After washing twice with 250 μL of ice cold acid wash buffer (0.02 M NaOAc buffered with AcOH to pH=5), cells were lysed with 250 μL of 1 N NaOH. The lysate was transferred to vials and combined with 250 μL of HBSS used for rinsing the wells. Quantification of the amount of free, acid-releasable and internalized activity was performed as described.

SH-SY5Y cells [9] = assay: Dual tracer internalization study (adherent cells), SH-SY5Y; type: cell-based, human; conditions: 30 min, 37° C., corrected for non-specific binding (100 μM AMD3100)
Method: as §3

MCF-7 cells [10] = assay: Dual tracer internalization study (adherent cells), MCF-7; type: cell-based, human; conditions: MCF-7, 30 min, 37° C., corrected for non-specific binding (100 μM AMD3100)
Method: as §3

DU-145 cells = assay: Dual tracer internalization study (adherent cells), DU-145; type: cell-based, human; conditions: DU-145, 30 min, 37° C., corrected for non-specific binding (100 μM AMD3100)
Method: as §3

Jurkat cells [11] = assay: Dual tracer externalization study (suspension cells), Jurkat; type: cell-based, human
Method: (§4) To ensure receptor integrity, no acid wash was performed after this initial internalization incubation. Then, to determine the extent of ligand recycling, two different experiments were performed. In the experiment allowing ligand recycling, 250 μL of assay medium were added to each well. […] Experiments were carried out in triplicate for both experimental conditions. Subsequently, the cells were incubated for 5, 15, 30 and 60 minutes at 37° C. Then, the tubes were centrifuged, the supernatant was removed and combined with 250 μL of HBSS used for washing the cells. This fraction represents the amount of externalized ligand. The following steps, i.e. acid wash and quantification of the remaining cellular activity, were performed as described for the internalization experiment.

Daudi cells [12] = assay: Dual tracer externalization study (suspension cells), Daudi; type: cell-based, human
Method: as §4

HT-29 cells [13] = assay: Dual tracer externalization study (adherent cells), HT-29; type: cell-based, human
Method: (§5) In the experiment allowing ligand recycling 250 µL of assay medium were added to the wells (n=3). […] Subsequently, cells were incubated at 37° C. for 5, 15, 30 and 60 min, respectively. The supernatant was removed and combined with 250 μL of HBSS used for rinsing the cells. This fraction represents the amount of externalized ligand at the respective time point. The following lysis of the cells was performed as desribed for the internalization experiment.

SH-SY5Y cells [14] = assay: Dual tracer externalization study (adherent cells), SH-SY5Y; type: cell-based, human
Method: as §5

MCF-7 cells [15] = assay: Dual tracer externalization study (adherent cells), MCF-7; type: cell-based, human
Method: as §5

[16] = system: CXCR4 expressing cell lines; assay: Dual tracer internalization studies in various human cancer cell lines; type: cell-based; conditions: in all cell lines
Method: as §2
as §3, with “The lysate was transferred to vials and combined with 250 μL of HBSS used for rinsing the wells.” left out

[17] = system: Daudi (high CXCR4) and SU-DHL-8 (low CXCR4) xenografts; conditions: mouse, in vivo, iv
Method: as §6, §7

[18] = recycling allowed (medium only)
[19] = recycling inhibited (100 μM AMD3100)

3-iodo-D-Tyr^1-FC-131
IC50 (hCXCR4 [1]): 1.3 nM

CN1C(=O)[C@@H](Cc2ccc(O)cc2)NC(=O)CNC(=O)[C@H](Cc2ccc3ccccc3c2)NC(=O)[C@H](CCCNC(=N)N)NC(=O)[C@H]1CCCNC(=O)c1ccc(NC(=O)CCCCCNC(=O)CN2CCN3CCN4CCN(CC2)CC(=O)[O][Ga]([O]C(=O)C3)[O]C(=O)C4)cc1 [yorn′(ABS, Ahx, DOTA, Ga)RNalG] (cyclo([2Nal]G[dY][dNMeOrn]([4Abz-Ahx-DOTA(Ga)])R))
IC50 (hCXCR4 [2]): 30.3 ± 6.52 nM

CN1C(=O)[C@@H](Cc2ccc(O)cc2)NC(=O)CNC(=O)[C@H](Cc2ccc3ccccc3c2)NC(=O)[C@H](CCCNC(=N)N)NC(=O)[C@H]1CCCNC(=O)c1ccc(CNC(=O)CN2CCN3CCN4CCN(CC2)CC(=O)[O][Ga]([O]C(=O)C3)[O]C(=O)C4)cc1 [yorn′(AMBS, DOTA, Ga)RNalG] (cyclo([2Nal]G[dY][dNMeOrn]([4Amb-DOTA(Ga)])R))
increase in CXCR4 affinity by (radio)iodination, factor (hCXCR4 [3]): ~20

CN1C(=O)[C@@H](Cc2ccc(O)cc2)NC(=O)CNC(=O)[C@H](Cc2ccc3ccccc3c2)NC(=O)[C@H](CCCNC(=N)N)NC(=O)[C@H]1CCCNC(=O)c1ccc(CNC(=O)CN2CCN(CC(=O)O)CCN(CC(=O)O)CCN(CC(=O)O)CC2)cc1 [yorn′(AMBS, DOTA, ^68Ga)RNalG, metal not drawn] (cyclo([dY][dNMeOrn]([4Amb-DOTA])R[2Nal]G))
tumor-to-non-tumor ratios (in words) [4]: comparable

[^125I]yorn′(ABS, Avs, DOTA, Lu)RNalG
Log PO/PBS [5]: −1.23

[^125I]yorn′(ABS, DOTA, In)RNalG
Log PO/PBS [5]: −1.37

[^125I]yorn′(ABS, G, DOTA, Lu)RNalG
Log PO/PBS [5]: −1.28

[^125I]yorn′(AMBS, DOTA, Ga)RNalG
Log PO/PBS [5]: −1.56
fraction of membrane bound activity versus internalized activity (in words) (Jurkat cells [6]; Jurkat cells, comparable for the other cell lines): considerably higher
Internalization efficiency (internalized activity in % of total cellular activity) (Jurkat cells [6]; Jurkat, 30 min, 37° C., corrected for non-specific binding (100 μM AMD3100)): 27.4 ± 2.0 % of total cellular activity
Internalization efficiency (internalized activity in % of total cellular activity) (Daudi cells [7]): 51.3 ± 4.4 % of total cellular activity
Internalization efficiency (internalized activity in % of total cellular activity) (SUDHL-8 cells): 29.9 ± 5.2 % of total cellular activity
Internalization efficiency (internalized activity in % of total cellular activity) (HT-29 cells [8]): 77.9 ± 4.6 % of total cellular activity
Internalization efficiency (internalized activity in % of total cellular activity) (SH-SY5Y cells [9]): 57.3 ± 7.1 % of total cellular activity
Internalization efficiency (internalized activity in % of total cellular activity) (MCF-7 cells [10]): 37.6 ± 3.7 % of total cellular activity
Internalization efficiency (internalized activity in % of total cellular activity) (DU-145 cells): 69.1 ± 18.2 % of total cellular activity
Residual internalized activity after a 60 min externalization incubation (Jurkat cells [11]; [18]): 8.0 ± 2.0 % of total cellular activity at t = 0
Residual internalized activity after a 60 min externalization incubation (Jurkat cells [11]; [19]): 3.7 ± 1.3 % of total cellular activity at t = 0
Residual internalized activity after a 60 min externalization incubation (Daudi cells [12]; [18]): 14.5 ± 2.0 % of total cellular activity at t = 0
Residual internalized activity after a 60 min externalization incubation (Daudi cells [12]; [19]): 7.0 ± 0.5 % of total cellular activity at t = 0
Residual internalized activity after a 60 min externalization incubation (HT-29 cells [13]; HT-29, recycling allowed (medium only)): 13.5 ± 2.6 % of total cellular activity at t = 0
Residual internalized activity after a 60 min externalization incubation (HT-29 cells [13]; HT-29, recycling inhibited (100 μM AMD3100)): 10.5 ± 2.5 % of total cellular activity at t = 0
ligand recycling (in words) (HT-29 cells [13]; HT-29 cells, nearly identical results for the other cell lines): almost no ligand recycling
Residual internalized activity after a 60 min externalization incubation (SH-SY5Y cells [14]; [18]): 11.2 ± 2.5 % of total cellular activity at t = 0
Residual internalized activity after a 60 min externalization incubation (SH-SY5Y cells [14]; [19]): 7.8 ± 1.0 % of total cellular activity at t = 0
Residual internalized activity after a 60 min externalization incubation (MCF-7 cells [15]; MCF-7, recycling allowed (medium only)): 10.4 ± 1.4 % of total cellular activity at t = 0
Residual internalized activity after a 60 min externalization incubation (MCF-7 cells [15]; MCF-7, recycling inhibited (100 μM AMD3100)): 8.7 ± 1.1 % of total cellular activity at t = 0
internalization compared to yorn′(AMBS, DOTA, ^68Ga)RNalG (in words) [16]: significantly higher internalization
tumor-to-non-tumor ratios (in words) [17]: comparable

[^125I]yorn′(AMBS, DOTA, In)RNalG
Log PO/PBS [5]: −1.39

[^125I]yorn′(AMBS, DOTA, Lu)RNalG
Log PO/PBS [5]: −1.38

cyclo(-D-Tyr^1[^125I]-Arg^2-Arg^3-Na1^4-Gly^5 [[^125I]FC-131, reference compound]
Log PO/PBS [5]: −0.35

yorn′(ABS, Ahx, DOTA, In)RNalG
IC50 (hCXCR4 [2]): 26.5 ± 22.6 nM

yorn′(ABS, G, DOTA, Ga)RNalG
IC50 (hCXCR4 [2]): 16.7 ± 3.28 nM

yorn′(AMBS, DOTA, In)RNalG
IC50 (hCXCR4 [2]): 44.9 ± 10.4 nM

yorn′(DOTA, In)RNalG
IC50 (hCXCR4 [2]): > 1000 nM
